Data published in ChEMBL document CHEMBL1157351, “Total synthesis and evaluation of C25-benzyloxyepothilone C for tubulin assembly and cytotoxicity against MCF-7 breast cancer cells” (Bioorg Med Chem Lett, 2008).
Active and inactive are the calls of the source. The calls are words filed in the database; no cut-off is given here.

Columns and labels:
[1] = Inhibition of microtubule assembly at 100 uM
[2] = Inhibition of microtubule assembly
[3] = test system: MCF7; experiment: Ratio of ED50 for drug to ED50 for epothilone B against human MCF7 cells; type: functional
[4] = test system: MCF7; experiment: Cytotoxicity against human MCF7 cells; type: functional

- Activity [1]: inactive
- EC50 [2]: 2.5 µM
SMILES: C/C(=C\c1csc(C)n1)[C@@H]1C/C=C\CCC[C@H](COCc2ccccc2)C(O)[C@@H](C)C(=O)C(C)(C)C(O)CC(=O)O1 (some centres undefined)
- Ratio ED50 [3]: 1050
- Activity [4]: 2.1 µM
